Tested on: MAPK (ERK)
Experiment: Activation of MAPK (ERK) in human normal keratinocytes (HEKa), Western blot of phospho-ERK / total ERK
Type: cell-based
Conditions: human primary keratinocytes (HEKa), 2 hours treatment
Procedure: Human normal Keratinocyte cells HEKa were seeded in 10 cm dishes (300,000 cells/dish) and incubated overnight at 37° C., 5% CO2. Next morning, the cells were starved for 2 hours and then treated with the various inhibitors (or control treatments) for 2 hours. Post incubation the cells were lyzed with RIPA Buffer and the protein extracts were analyzed by Western-Blot for detection of phospho ERK and total ERK2, by use of suitable antibodies. Untreated and 0.1% DMSO treated cells were used as negative control. Growth factors mix (HKGS) was used as positive control (Gibco CAT #: S0015).
Western Blot: 7.5 μg of total extract was loaded on 10% or 12% acrylamide gels. Following transfer, the membranes were blocked with TBST/5% skim milk and then incubated with Mouse anti phospho ERK (1:1000 in TBST 5% BSA, ON at 4° C.) and goat anti Mouse HRP (1:10,000 in TBST 5% BSA, 1 hour RT). The membranes were exposed using SuperSignal West Pico Chemiluminescent Substrate. The HRP was then inactivated by incubating the membranes for 1 hour with 0.5% Sodium azide. Following washes and ECL exposure in order to ensure absence of signal, the membranes were reblocked for 15 min with TBST/5% skim milk and then incubated with Rabbit anti total ERK2 (1:500 in TBST 5% BSA, ON at 4° C.), goat anti Rabbit HRP (1:5,000 in TBST 5% BSA, 1 hour RT) and finally exposed using the SuperSignal West Pico Chemiluminescent Substrate. The resulting images (films) were scanned and the signal were quantified using ImageJ software. BRaf inhibitors used in the experiments included, C-1, C-15, C-19 C-A or vemurafenib, at concentrations of 0.3 μM; 1 μM or 3 μM. ZM (ZM336372) a c-Raf inhibitor, which serves in the present experiments as a Braf activator and was used as a control.

[1] = increasing amounts 0.3 μM, 1 μM or 3 μM, FIGS. 1-3

| Structure (SMILES) | activation of ERK (increase in relative amount of Phosphorylated ERK) (1 μM, FIGS. 4A-C) | activation of ERK (increase in relative amount of Phosphorylated ERK) [1] |
| --- | --- | --- |
| Cc1ccc2c(Nc3ccc(Cl)cc3)nccc2c1Nc1ncccc1-c1ncnc2[nH]cnc12 [C-1] | activation of ERK | activation of ERK |
| C#Cc1cccc(Nc2nccc3c(Nc4ncccc4-c4cc(NC)ncn4)c(C)ccc23)c1 [C-15] | activation of ERK | activation of ERK |
| CNc1ncc2cc(-c3c(C)ccc4c(Nc5cc(C(C)(C)C)nn5C)nccc34)ccc2n1 [C-19] | activation of ERK | activation of ERK |
| CNc1ncc2cc(-c3c(C)ccc4c(Nc5cccc(OC(F)(F)F)c5)nc(C)nc34)ccc2n1 [C-A] | activation of ERK | activation of ERK |
| Cc1ccc(NC(=O)c2cccc(N(C)C)c2)cc1NC(=O)c1ccc(O)cc1 [ZM 336372] | activation of ERK | activation of ERK |

— patent publication US11197861B2, “Methods of screening BRaf inhibitors for treating cutaneous reactions” (Lutris Pharma Ltd., priority 2016, dated 2021)
